Laboratory results: ChEMBL document CHEMBL1201862, “PubChem BioAssay data set” (2004)
The source made the active and inactive calls.

Key:
[1] = growth suppression of PTEN-null colon cells, dose response, cell-based, HCT116 PTEN knockout (AID 1047); format: functional;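 further: HCT116 colon tumor cells with PTEN knocked out; cells exposed to compound for 60 hours before readout; potency for loss of cell viability measured by luminescence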
[2] = growth suppression of beta-catenin-knockout colon cells, dose response, cell-based, HCT116, human colon tumor (AID 1045); format: functional;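 further: HCT116 colon tumor cells with beta catenin knocked out; cells exposed to compound for 60 hours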
[3] = molecular target: T1, Carboxy-terminal domain RNA polymerase II polypeptide A small phosphatase 1 (Homo sapiens, UniProt Q9GZU7); experiment: inhibitors of CTDSP1, concentration-response testing, biochemical assay, absorbance-based, actives from ultra-high-throughput screening (AID 540297); format: functional
T1 sequence (Q9GZU7 whole entry): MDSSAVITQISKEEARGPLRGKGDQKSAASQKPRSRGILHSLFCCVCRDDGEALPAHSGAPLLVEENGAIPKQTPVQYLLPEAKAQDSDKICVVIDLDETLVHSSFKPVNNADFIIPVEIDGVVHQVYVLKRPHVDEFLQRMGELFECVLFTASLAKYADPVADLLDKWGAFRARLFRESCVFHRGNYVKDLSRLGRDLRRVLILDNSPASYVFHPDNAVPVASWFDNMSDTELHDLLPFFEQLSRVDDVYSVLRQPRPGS

[4] = molecular target: T2, Low molecular weight phosphotyrosine protein phosphatase (Homo sapiens, UniProt P24666); format: functional; conditions: read-out: IC50_Mean;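 further: Dose-response confirmation assay measuring inhibition of LMPTP enzyme activity by fluorescence intensity read-out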
T2 sequence (P24666 whole entry): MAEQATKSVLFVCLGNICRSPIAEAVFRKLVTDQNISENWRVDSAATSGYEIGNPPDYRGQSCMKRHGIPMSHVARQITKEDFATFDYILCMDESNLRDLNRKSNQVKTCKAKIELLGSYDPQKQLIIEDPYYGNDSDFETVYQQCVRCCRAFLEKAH

[5] = molecular target: T3, Hepatocyte nuclear factor 4-alpha (Homo sapiens, UniProt P41235); format: functional, cell-based;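 further: biochemical luminescence-based dose-response counterscreen measuring inhibition of HNF4 dimerization, run alongside a screen for blockers of ABHD5–perilipin-5 interaction; split luciferase complementation of HNF4 fusion proteins in cell lysate measuring dimerization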
T3 sequence (P41235 whole entry): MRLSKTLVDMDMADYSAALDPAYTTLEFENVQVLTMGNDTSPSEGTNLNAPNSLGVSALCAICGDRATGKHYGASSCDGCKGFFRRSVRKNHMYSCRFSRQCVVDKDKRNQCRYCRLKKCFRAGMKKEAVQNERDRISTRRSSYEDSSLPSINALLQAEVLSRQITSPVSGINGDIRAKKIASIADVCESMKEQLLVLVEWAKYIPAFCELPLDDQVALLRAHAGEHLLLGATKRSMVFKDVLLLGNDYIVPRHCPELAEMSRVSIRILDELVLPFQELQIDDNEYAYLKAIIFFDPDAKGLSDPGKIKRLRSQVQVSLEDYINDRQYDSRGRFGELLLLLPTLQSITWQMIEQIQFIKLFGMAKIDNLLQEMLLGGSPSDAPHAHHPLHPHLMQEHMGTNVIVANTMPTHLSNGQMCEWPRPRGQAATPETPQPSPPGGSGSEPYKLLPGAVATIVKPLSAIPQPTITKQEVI

[6] = molecular target: Paired box protein Pax-8 (Homo sapiens, UniProt Q06710); experiment: inhibitors of PAX8-driven TPO luciferase reporter, dose response, RMG-I cells, cherry-pick (AID 687027); format: functional, cell-based;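 further: luciferase reporter driven by Pax8 target thyroperoxidase promoter measured by SteadyGlo luminescence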
[7] = non-specific cell cytotoxicity, dose response, cytotoxicity control for PAX8 inhibitor project, plate reader, dry powder samples (AID 743021); format: functional, cell-based
[8] = HEp-2 cell cytotoxicity, dose response, cytotoxicity control for RSV inhibitor project, HTS (AID 2410); format: functional; conditions: human respiratory syncytial virus
[9] = test system: Vero; experiment: cells; format: functional, cell-based; conditions: Chlorocebus sabaeus
[10] = test system: Vero; experiment: cells; format: functional; conditions: Chlorocebus sabaeus
[11] = molecular target: T4, Polyadenylate-binding protein 1 (Homo sapiens, UniProt P11940); experiment: PABP1 MLLE–PAM2 interaction inhibitors, dose response, miRNA deadenylation inhibitor project, biochemical, fluorescence polarization, Cy5-PAM2 peptide, secondary (AID 602260); format: functional; conditions: read-out: IC50_Mean
[12] = molecular target: T4, Polyadenylate-binding protein 1; experiment: PABP1 MLLE–PAM2 binding inhibitor potency, dose response, biochemical, fluorescence polarization, FITC-PAM2 peptide (AID 602259); format: functional; conditions: read-out: IC50_Mean
[13] = molecular target: Genome polyprotein (dengue virus type 2, UniProt P29990); experiment: Dengue-2 NS5 methyltransferase inhibitors, primary screen, biochemical, confirmation dose response (AID 588689); format: functional
[14] = test system: P388/ADR; experiment: cells; format: functional; conditions: Mus musculus
[15] = test system: SN12K1; experiment: cells; format: functional; conditions: Homo sapiens
[16] = test system: P388; experiment: cells; format: functional; conditions: Mus musculus
[17] = molecular target: T5, Replicative DNA helicase DnaB (Mycobacterium tuberculosis, UniProt P9WMR3); experiment: DnaB intein splicing inhibitors, dose response, biochemical, cell-free fluorescence (AID 449749); format: functional
T5 sequence (P9WMR3 whole entry): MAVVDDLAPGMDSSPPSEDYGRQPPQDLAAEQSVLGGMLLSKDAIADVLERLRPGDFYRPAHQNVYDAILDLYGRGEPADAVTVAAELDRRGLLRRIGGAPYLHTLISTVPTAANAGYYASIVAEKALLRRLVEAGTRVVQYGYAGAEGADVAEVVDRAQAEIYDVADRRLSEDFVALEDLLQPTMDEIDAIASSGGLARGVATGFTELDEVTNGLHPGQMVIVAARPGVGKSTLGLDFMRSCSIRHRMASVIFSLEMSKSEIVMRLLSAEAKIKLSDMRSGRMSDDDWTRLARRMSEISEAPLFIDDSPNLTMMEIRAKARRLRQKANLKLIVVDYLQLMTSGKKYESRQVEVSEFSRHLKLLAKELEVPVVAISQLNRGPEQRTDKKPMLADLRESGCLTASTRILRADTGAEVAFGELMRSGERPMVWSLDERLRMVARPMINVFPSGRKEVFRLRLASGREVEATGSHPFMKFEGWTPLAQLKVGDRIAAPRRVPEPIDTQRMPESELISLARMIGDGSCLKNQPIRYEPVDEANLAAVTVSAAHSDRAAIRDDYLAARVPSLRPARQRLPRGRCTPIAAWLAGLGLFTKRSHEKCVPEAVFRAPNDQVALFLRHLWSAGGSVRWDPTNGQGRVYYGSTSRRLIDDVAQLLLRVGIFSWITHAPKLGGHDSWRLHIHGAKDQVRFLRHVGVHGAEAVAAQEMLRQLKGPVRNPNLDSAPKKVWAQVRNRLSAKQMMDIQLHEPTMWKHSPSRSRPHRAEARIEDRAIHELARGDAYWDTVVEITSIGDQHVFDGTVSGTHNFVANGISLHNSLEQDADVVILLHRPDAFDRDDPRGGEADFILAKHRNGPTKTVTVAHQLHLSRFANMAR

[18] = molecular target: T6, Protein RecA (Mycobacterium tuberculosis, UniProt P9WHJ3); experiment: Fluorescence Cell-Free Homogeneous Dose Retest to Identify Inhibitors of RecA-Intein Splicing Activity. [Related pubchem assays (depositor defined):AID2097, AID2223, AID489010, AID492950]; format: functional
T6 sequence (P9WHJ3 whole entry): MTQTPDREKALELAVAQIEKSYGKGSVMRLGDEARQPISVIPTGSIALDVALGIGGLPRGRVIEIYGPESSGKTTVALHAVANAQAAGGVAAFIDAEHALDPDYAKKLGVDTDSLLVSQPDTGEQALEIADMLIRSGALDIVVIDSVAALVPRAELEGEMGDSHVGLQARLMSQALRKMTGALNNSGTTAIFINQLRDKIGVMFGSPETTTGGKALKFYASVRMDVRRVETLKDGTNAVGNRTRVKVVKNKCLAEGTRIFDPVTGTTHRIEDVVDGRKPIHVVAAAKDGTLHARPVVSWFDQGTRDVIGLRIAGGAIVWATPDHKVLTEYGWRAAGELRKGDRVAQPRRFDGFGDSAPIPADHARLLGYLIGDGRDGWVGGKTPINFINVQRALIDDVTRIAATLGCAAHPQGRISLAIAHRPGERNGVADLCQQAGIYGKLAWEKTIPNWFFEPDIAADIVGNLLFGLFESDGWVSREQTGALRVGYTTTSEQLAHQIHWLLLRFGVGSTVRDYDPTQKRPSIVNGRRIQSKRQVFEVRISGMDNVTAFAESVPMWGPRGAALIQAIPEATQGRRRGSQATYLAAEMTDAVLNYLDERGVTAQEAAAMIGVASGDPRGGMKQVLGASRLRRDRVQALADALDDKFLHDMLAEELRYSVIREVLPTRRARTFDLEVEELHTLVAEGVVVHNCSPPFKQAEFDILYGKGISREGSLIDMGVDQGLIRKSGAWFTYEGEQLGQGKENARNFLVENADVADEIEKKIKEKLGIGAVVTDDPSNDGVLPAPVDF

[19] = NIH-3T3 fibroblast cytotoxicity, dose response, cytotoxicity control, cell-based, fluorescence, Alamar Blue, secondary assay (AID 2327); format: functional;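 further: NIH-3T3 mouse fibroblasts cultured with fluconazole at 8 µg/mL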
[20] = molecular target: T7, Heat shock factor protein 1 (Mus musculus, UniProt P38532); experiment: inhibition of MG132-induced HSE-luciferase signal, confirmation, cell-based, NIH3T3, luminescence, dose retest (AID 2382); format: functional;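 further: NIH3T3 fibroblasts with HSF1-driven luciferase reporter stressed by proteasome inhibitor MG132; luminescence from HSF1-driven luciferase expression after 8 hours of MG132 stress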
T7 sequence (P38532 whole entry): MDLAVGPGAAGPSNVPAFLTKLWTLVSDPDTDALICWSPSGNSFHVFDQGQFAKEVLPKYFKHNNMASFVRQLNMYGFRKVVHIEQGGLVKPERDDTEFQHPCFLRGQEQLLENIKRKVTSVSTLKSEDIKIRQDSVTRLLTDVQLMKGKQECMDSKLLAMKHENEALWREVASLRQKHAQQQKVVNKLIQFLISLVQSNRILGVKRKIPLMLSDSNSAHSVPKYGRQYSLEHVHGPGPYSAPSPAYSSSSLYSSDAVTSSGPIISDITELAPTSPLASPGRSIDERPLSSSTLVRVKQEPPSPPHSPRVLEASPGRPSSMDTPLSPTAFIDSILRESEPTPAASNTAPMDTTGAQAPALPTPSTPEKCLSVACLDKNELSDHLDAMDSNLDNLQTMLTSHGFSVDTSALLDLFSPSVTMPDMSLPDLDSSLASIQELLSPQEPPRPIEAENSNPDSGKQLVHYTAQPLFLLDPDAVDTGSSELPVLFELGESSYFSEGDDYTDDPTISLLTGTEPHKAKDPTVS

[21] = C. albicans growth with fluconazole, confirmation, fluorescence, retest (AID 2467); format: functional, cell-based
[22] = inhibitors of intracellular T. cruzi replication, confirmation, NIH3T3 host cells, beta-gal luminescence (AID 2044); format: functional, cell-based;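 further: intracellular parasites grown in NIH/3T3 mouse fibroblasts as host cells; luminescent beta-galactosidase reporter signal from transgenic T. cruzi replicating inside host cells; inhibitors lower the luminescence signal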
[23] = cytotoxicity toward NIH3T3 fibroblasts, dose response, counter-screen, cell-based, ATP luminescence, mouse fibroblasts (AID 2010); format: functional;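 further: cells exposed to compound for about 90 hours before reading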
[24] = Shn3 3'UTR reporter inhibitors, dose response, cell-based, Clone20 osteoblasts, firefly luciferase, cherry-picked (AID 624132); format: functional;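 further: firefly luciferase luminescence from reporter carrying the Shn3 3'UTR in osteoblasts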
[25] = HepG2 cell cytotoxicity, dose response, cytotoxicity control for Shn3 inhibitor project, CellTiter-Glo, cherry-picked (AID 624134); format: functional, cell-based
[26] = control 3'UTR Renilla luciferase suppression, dose response, counter-screen for Shn3 inhibitor project, cell-based, Clone20-Shn3RL, cherry-picked (AID 624133); format: functional

T4 sequence (P11940 whole entry): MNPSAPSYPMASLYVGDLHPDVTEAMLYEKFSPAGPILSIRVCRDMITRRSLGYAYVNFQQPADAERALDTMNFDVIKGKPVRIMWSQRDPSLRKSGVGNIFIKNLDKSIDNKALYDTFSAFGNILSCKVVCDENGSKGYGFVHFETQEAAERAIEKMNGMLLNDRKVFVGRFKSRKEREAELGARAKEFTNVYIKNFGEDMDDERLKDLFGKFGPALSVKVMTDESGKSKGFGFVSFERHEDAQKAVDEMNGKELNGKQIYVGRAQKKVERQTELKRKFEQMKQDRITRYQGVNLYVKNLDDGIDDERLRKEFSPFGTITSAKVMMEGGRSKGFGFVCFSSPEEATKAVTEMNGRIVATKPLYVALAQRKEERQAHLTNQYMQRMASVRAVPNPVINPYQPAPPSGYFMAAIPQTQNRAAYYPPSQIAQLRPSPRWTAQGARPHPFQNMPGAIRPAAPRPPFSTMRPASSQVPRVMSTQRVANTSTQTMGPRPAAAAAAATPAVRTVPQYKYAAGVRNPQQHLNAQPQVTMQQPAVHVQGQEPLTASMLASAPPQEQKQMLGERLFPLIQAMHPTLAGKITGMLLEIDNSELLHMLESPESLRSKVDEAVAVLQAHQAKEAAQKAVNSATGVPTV
Chain of Paired box protein Pax-8 (Q06710 whole entry): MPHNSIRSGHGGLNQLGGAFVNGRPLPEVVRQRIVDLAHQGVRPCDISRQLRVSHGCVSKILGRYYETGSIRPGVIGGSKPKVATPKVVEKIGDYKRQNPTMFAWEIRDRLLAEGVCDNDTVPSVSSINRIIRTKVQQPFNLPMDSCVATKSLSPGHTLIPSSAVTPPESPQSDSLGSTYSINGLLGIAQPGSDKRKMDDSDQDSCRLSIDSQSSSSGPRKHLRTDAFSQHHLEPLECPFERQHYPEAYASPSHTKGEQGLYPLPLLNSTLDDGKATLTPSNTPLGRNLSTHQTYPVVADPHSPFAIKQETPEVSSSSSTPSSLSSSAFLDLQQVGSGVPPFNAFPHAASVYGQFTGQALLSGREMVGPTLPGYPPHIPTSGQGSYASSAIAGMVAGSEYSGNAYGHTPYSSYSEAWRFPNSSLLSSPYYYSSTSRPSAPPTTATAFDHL
Chain of Genome polyprotein (P29990 2492-3391 limits assumed): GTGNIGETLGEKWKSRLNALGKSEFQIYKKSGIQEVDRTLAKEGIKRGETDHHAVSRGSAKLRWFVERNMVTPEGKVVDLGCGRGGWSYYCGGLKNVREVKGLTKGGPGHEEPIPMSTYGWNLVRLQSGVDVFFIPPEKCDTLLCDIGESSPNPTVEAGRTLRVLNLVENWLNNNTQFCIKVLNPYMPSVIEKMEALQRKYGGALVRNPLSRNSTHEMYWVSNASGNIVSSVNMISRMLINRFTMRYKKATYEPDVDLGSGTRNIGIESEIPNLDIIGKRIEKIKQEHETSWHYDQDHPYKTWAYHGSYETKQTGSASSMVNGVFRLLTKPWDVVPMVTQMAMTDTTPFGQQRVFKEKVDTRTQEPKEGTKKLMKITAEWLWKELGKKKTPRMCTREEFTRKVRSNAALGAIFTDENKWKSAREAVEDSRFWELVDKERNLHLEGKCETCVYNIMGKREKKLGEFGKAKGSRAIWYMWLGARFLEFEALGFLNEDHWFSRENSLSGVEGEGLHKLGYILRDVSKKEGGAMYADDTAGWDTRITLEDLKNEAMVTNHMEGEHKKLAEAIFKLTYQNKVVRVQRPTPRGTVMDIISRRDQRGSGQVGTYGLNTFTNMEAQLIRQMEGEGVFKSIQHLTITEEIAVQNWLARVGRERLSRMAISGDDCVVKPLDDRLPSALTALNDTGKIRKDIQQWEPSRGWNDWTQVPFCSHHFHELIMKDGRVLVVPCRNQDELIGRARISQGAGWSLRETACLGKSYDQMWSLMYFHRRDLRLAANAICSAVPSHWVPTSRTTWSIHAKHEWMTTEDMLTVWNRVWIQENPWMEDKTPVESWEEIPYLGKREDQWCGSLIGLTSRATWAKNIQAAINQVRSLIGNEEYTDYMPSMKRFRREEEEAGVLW

O=C(N/N=C/c1cccc([N+](=O)[O-])c1)c1cc2c(ccc3ccccc32)o1
EC50 [1]: 52.6 µM (active)
EC50 [2]: 148 µM (active)
IC50 [3]: 3.91 µM (active)
IC50 [4]: 4.06 µM (active)

Cc1cccc(C)c1NC(=O)C(c1ccccc1F)n1c(=O)c(-c2ccco2)nc2ccccc21 (configuration not stated)
IC50 [5]: 2.48 µM (active)

O=C(CC1S/C(=N\c2cccc3ccccc23)N(Cc2ccccn2)C1=O)Nc1ccccc1Br (configuration not stated)
AC50 [6]: 15.4 µM (active)
AC50 [7]: 67.5 µM (active)

O=C1/C(=C/c2cccnc2)CC/C1=C\c1cccnc1
CC50 [8]: 27.2 µM (active)
IC50 [5]: 7.46 µM (active)

C#CCN(C[C@@H]1[C@@H](OC(=O)Nc2cccs2)[C@@H](OC(=O)Nc2cccs2)Cn2c(=O)ccc(=O)n21)S(=O)(=O)c1ccc(C)cc1
IC50 [9]: 23.3 µM (active)
CC50 [10]: > 25 µM (active)
IC50 [5]: 5.6 µM (active)
AC50 [6]: 4.22 µM (active)

CCN(CC)CCC(C)OC(c1ccccc1)c1ccccc1 (configuration not stated)
IC50 [5]: 20.7 µM (inactive)

CC1=C(C(=O)O)N2C(=O)C(NC(=O)c3ccn(C)n3)C2SC1 (configuration not stated)
IC50 [11]: > 66 µM (inactive)
IC50 [12]: > 66 µM (inactive)

CC1CN(C(=S)c2cccc([N+](=O)[O-])c2)CC(C)O1 (configuration not stated)
IC50 [11]: > 66 µM (inactive)
IC50 [12]: > 66 µM (inactive)

Cc1ccc(C(=O)C2=C(O)C(=O)OC2c2ccc(Cl)cc2)cc1 (configuration not stated)
IC50 [13]: 60.8 µM (active)
IC50 [5]: 8.81 µM (active)

N=C(N)NC(=S)Nc1ccc(Cl)cc1
IC50 [11]: > 66 µM (inactive)
IC50 [12]: > 66 µM (inactive)

CC1C(O)[C@@]2(OC[C@@]34C(=O)CC5(O)[C@H](CCC6Cc7nc8c(nc7C[C@]65C)CC5CC[C@@H]6C7=C[C@H]9O[C@@]%10(O[C@@](C)(CO)C[C@@H]%10O)C(C)[C@@]9(O)[C@]7(C)[C@@H](O)CC6[C@]5(C)C8)C3=CC[C@H]4C2C)OC1(C)C (some centres not stated)
GI50 [14]: 0.00203 µM (active)
GI50 [15]: > 3.55 µM (inactive)
GI50 [16]: < 0.000355 µM (active)

O=C(O)c1ccccc1Nc1cc(Cl)c2nonc2c1[N+](=O)[O-]
AC50 [17]: 0.0492 µM (active)
EC50 [18]: 1.94 µM (active)
IC50 [11]: > 66 µM (inactive)
IC50 [12]: > 66 µM (inactive)

Cc1ccc(S(=O)(=O)c2ncccc2[N+](=O)[O-])cc1
EC50 [19]: 4.37 µM (inconclusive)
EC50 [20]: 3.92 µM (active)
EC50 [21]: 2.73 µM (active)
EC50 [22]: 2.96 µM (active)
EC50 [23]: 2.85 µM (active)
AC50 [24]: 1.91 µM (active)
AC50 [25]: 30.2 µM (active)
AC50 [26]: 6.47 µM (active)
AC50 [6]: 8.34 µM (active)
AC50 [7]: 23.6 µM (active)

Nc1nc(=O)[nH][nH]1
GI50 [14]: > 100 µM (inactive)
GI50 [15]: > 100 µM (inactive)
GI50 [16]: > 100 µM (inactive)
